Columns and labels:
human CXCR2 = target: T1, human CXCR2 (Homo sapiens, UniProt P25025); assay: human CXCR2 calcium flux activity (FLIPR, HEK293 cells stably expressing human CXCR2, IL-8 stimulation); assay type: cell-based; conditions: HEK293 cells stably expressing human CXCR2, EC80 human IL-8; read-out: CXCR2 inhibitory activity, IC50
T1 construct: expressed in transfected cells; host or cells: HEK293
T1 sequence (P25025 1-360): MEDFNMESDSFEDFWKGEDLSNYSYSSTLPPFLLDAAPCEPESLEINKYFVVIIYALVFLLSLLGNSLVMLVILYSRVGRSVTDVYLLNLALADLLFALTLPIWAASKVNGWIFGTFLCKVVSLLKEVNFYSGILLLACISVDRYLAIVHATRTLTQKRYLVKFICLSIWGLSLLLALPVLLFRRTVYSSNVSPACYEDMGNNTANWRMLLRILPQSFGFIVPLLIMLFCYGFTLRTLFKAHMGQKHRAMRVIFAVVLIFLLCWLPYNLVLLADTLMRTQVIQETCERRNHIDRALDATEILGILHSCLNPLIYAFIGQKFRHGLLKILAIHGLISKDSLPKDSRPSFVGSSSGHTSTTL
In short: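 HEK293 cells stably expressing human CXCR2 were loaded with Fluo-4 Direct together with compound, 50 min at 37 °C then 10 min at room temperature. They were stimulated with human IL-8 at EC80, and fluorescence (ex 494/em 516 nm) recorded over 130 s. IC50 from four-parameter fit of inhibition of the max–min signal.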

[1] = in vitro liver microsome metabolic stability, human; assay type: in vitro ADME; conditions: Human liver microsomes, 37°C
In short: (§1)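 Test compound at 1 µM final (100 µM working solution diluted 1:100) incubated at 37°C with liver microsomes in pH 7.4 phosphate buffer with NADP/G6P/G6PDH/MgCl2 regenerating system; sampled 0–30 min, LC-MS/MS vs internal standard. T1/2 = 0.693/k from remaining-fraction decay.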

[2] = in vitro liver microsome metabolic stability, rat; assay type: in vitro ADME; conditions: Rat liver microsomes, 37°C
In short: as §1

[3] = in vitro liver microsome metabolic stability, mouse; assay type: in vitro ADME; conditions: Mouse liver microsomes, 37°C
Experimental: Preparation of working solutions for test compounds and standards: An appropriate amount of the compound was accurately weighed and dissolved in a corresponding volume of suitable solvent to prepare 1 mM stock solutions of the test compounds and standards. The stock solutions were then diluted with appropriate solvent to obtain 100 µM working solutions of the test compounds, ensuring that the DMSO content in the working solutions remained below 10%.
The internal standard compound testosterone (or tolbutamide) and its corresponding solvent, internal standard concentration (200 ng/mL), were selected based on the properties of the test compound.
• Solution A: 0.1 mol/L K2HPO4 (2.28 g K2HPO4·3H2O was dissolved in 100 mL of double-distilled water); • Solution B: 0.1 mol/L KH2PO4 (1.36 g KH2PO4 was dissolved in 100 mL of double-distilled water); • 80.2 mL of Solution A and 19.8 mL of Solution B were mixed thoroughly, and the pH was adjusted to 7.4.
37.5 mg of glycine was weighed, dissolved in 100 mL of ultrapure water, and adjusted to pH 8.0 with NaOH.
1.25 mg of glucose-6-phosphate dehydrogenase (400 U/mg) was weighed (the specific amount weighed was calculated based on the activity of the purchased glucose-6-phosphate dehydrogenase), dissolved in 1 mL of glycine buffer to a concentration of 500 U/mL, aliquoted into 20 µL per tube, and stored at -20°C for future use.
7.83 mg of NADP, 0.06 mL of D-glucose-6-phosphate (260 mg/mL), and 10.17 mg of MgCl2·6H2O were precisely weighed.
The mixture was dissolved in 1 mL of pure water. The cofactor ratio composition: NADP 10 mM, D-glucose-6-phosphate 60 mM, MgCl2·6H2O 50 mM.
The reaction system (taking a 500 µL system as an example) was composed of the following solution ratios: 416.5 µL phosphate buffer, 5 µL compound working solution, 25 µL liver microsomes, 3.5 µL glucose-6-phosphate dehydrogenase, and 50 µL cofactor solution. The total incubation volume could be adjusted according to experimental requirements.
416.5 µL of phosphate buffer was taken, 25 µL of liver microsomes, 3.5 µL of glucose-6-phosphate dehydrogenase, and 50 µL of cofactor solution were added, vortexed twice to mix, and preincubated in a 37°C water bath for 5 minutes. Then, 5 µL of the test compound working solution was added, vortexed twice to mix, each time for 2-3 seconds, and placed in a 37°C water bath to initiate the reaction, with two parallel samples set. At 0.5 min, 1 min, 2 min, 5 min, 15 min, and 30 min after the reaction, 50 µL of the mixture was taken and added to centrifuge tubes containing 200 µL of 0°C pre-cooled internal standard working solution to terminate the reaction, vortexed for 1 minute to mix, and centrifuged at 13,000 rpm for 10 minutes in a 4°C pre-cooled high-speed centrifuge. The supernatant was collected for analysis. After the compound was added and vortex-mixed, 50 µL of the mixture was rapidly transferred to a centrifuge tube containing 200 µL of a pre-cooled (0°C) internal standard working solution to terminate the reaction, vortex-mixed for 1 minute, and used as the relative zero-point sample (relative to the standard group). The sample was then placed into a 37°C water bath to initiate the reaction, and timing was started.
The sample analysis of the test compound was performed using the liquid chromatography-tandem mass spectrometry (LCMS/MS) method. The semi-quantitative determination was performed using the ratio of the analyte peak area to the internal standard peak area. The retention times of the analyte and internal standard, chromatogram acquisition, and chromatogram integration were processed using Analyst software.
The in vitro elimination rate constant k of the test compound and the control compound was determined by converting the ratio of the peak area of the test compound to the internal standard into the remaining rate, and T1/2 was then calculated according to the following formula. T1/2 = (Ln2)/(k) = (0.693)/(k) [formula] Table 3. […]

[4] = in vitro liver microsome metabolic stability, beagle dog; assay type: in vitro ADME; conditions: Beagle dog liver microsomes, 37°C
In short: as §1

CN(C)C(=O)c1nccc(Nc2c(N[C@@H](C#CC3CC3)C3(C)CCCC3)c(=O)c2=O)c1O [compound 115, (R)-4-((2-((3-cyclopropyl-1-(1-methylcyclopentyl)prop-2-yn-1-yl)amino)-3,4-dioxocyclobut-1-en-1-yl)amino)-3-hydroxy-N,N-dimethylpicolinamide]
IC50 (human CXCR2): 527 nM
Liver microsome T1-2 (min) Human [1]: 247.27 min
Liver microsome T1-2 (min) Rat [2]: 114.18 min
Liver microsome T1-2 (min) Mouse [3]: 1889.54 min
Liver microsome T1-2 (min) Beagle dog [4]: 1110.44 min

Reference: patent publication EP4703354A1, “COMPOUND AS CCR6 ANTAGONIST, AND PHARMACEUTICAL COMPOSITION AND USE THEREOF” (Wuhan Createrna Science and Technology Co.,Ltd., priority 2023, dated 2024)
